Reference: US8735322B2, “Herbicides” (Syngenta Limited, priority 2008, dated 2014)

What was measured:
Format in all cases: in vivo
Setaria faberi (SETFA) [1] = experiment: Example B pre-emergence herbicidal activity, glasshouse pot test; conditions: 312 h, rate 1000 g/ha, evaluated after 13 days, read-out: herbicidal damage SETFA (100=total damage to plant; 0=no damage to plant)
Protocol: (§1) Seeds of a variety of test species were sown in standard soil in pots. After cultivation for one day (pre-emergence) or after 8 days cultivation (post-emergence) under controlled conditions in a glasshouse (at 24/16° C., day/night; 14 hours light; 65% humidity), the plants were sprayed with an aqueous spray solution derived from the formulation of the technical active ingredient in acetone/water (50:50) solution containing 0.5% Tween 20 (polyoxyethelyene sorbitan monolaurate, CAS RN 9005-64-5). The test plants were then grown in a glasshouse under controlled conditions in a glasshouse (at 24/16° C., day/night; 14 hours light; 65% humidity) and watered twice daily. After 13 days for pre and post-emergence, the test was evaluated (100=total damage to plant; 0=no damage to plant). Alopecurus myosuroides (ALOMY), Avena fatua (AVEFA), Setaria faberi (SETFA), Echinochloa crus-galli (ECHCG), Solanum nigrum (SOLNI) and Amaranthus retroflexus (AMARE) Pre-Emergence Activity

[2] = system: Alopecurus myosuroides (ALOMY); experiment: as above; conditions: 312 h, rate 1000 g/ha, evaluated after 13 days, read-out: herbicidal damage ALOMY (100=total damage to plant; 0=no damage to plant)
Protocol: as §1

Solanum nigrum (SOLNI) [3] = experiment: as above; conditions: 312 h, rate 1000 g/ha, evaluated after 13 days, read-out: herbicidal damage SOLNI (100=total damage to plant; 0=no damage to plant)
Protocol: as §1

[4] = system: Amaranthus retroflexus (AMARE); experiment: as above; conditions: 312 h, rate 1000 g/ha, evaluated after 13 days, read-out: herbicidal damage AMARE (100=total damage to plant; 0=no damage to plant)
Protocol: as §1

Avena fatua (AVEFA) [5] = experiment: as above; conditions: 312 h, rate 1000 g/ha, evaluated after 13 days, read-out: herbicidal damage AVEFA (100=total damage to plant; 0=no damage to plant)
Protocol: as §1

[6] = system: Echinochloa crus-galli (ECHCG); experiment: as above; conditions: 312 h, rate 1000 g/ha, evaluated after 13 days, read-out: herbicidal damage ECHCG (100=total damage to plant; 0=no damage to plant)
Protocol: as §1

Setaria faberi (SETFA) [7] = experiment: Example B post-emergence herbicidal activity, glasshouse pot test; conditions: 312 h, rate 1000 g/ha, evaluated after 13 days, read-out: herbicidal damage SETFA (100=total damage to plant; 0=no damage to plant)
Protocol: as §1, with “Post-Emergence” for “Pre-Emergence”

[8] = system: Alopecurus myosuroides (ALOMY); experiment: as above; conditions: 312 h, rate 1000 g/ha, evaluated after 13 days, read-out: herbicidal damage ALOMY (100=total damage to plant; 0=no damage to plant)
Protocol: as §1, with “Post-Emergence” for “Pre-Emergence”

Solanum nigrum (SOLNI) [9] = experiment: as above; conditions: 312 h, rate 1000 g/ha, evaluated after 13 days, read-out: herbicidal damage SOLNI (100=total damage to plant; 0=no damage to plant)
Protocol: as §1, with “Post-Emergence” for “Pre-Emergence”

[10] = system: Amaranthus retroflexus (AMARE); experiment: as above; conditions: 312 h, rate 1000 g/ha, evaluated after 13 days, read-out: herbicidal damage AMARE (100=total damage to plant; 0=no damage to plant)
Protocol: as §1, with “Post-Emergence” for “Pre-Emergence”

Avena fatua (AVEFA) [11] = experiment: as above; conditions: 312 h, rate 1000 g/ha, evaluated after 13 days, read-out: herbicidal damage AVEFA (100=total damage to plant; 0=no damage to plant)
Protocol: as §1, with “Post-Emergence” for “Pre-Emergence”

[12] = system: Echinochloa crus-galli (ECHCG); experiment: as above; conditions: 312 h, rate 1000 g/ha, evaluated after 13 days, read-out: herbicidal damage ECHCG (100=total damage to plant; 0=no damage to plant)
Protocol: as §1, with “Post-Emergence” for “Pre-Emergence”

SMILES | pest or weed control at 1000 g/ha (Setaria faberi (SETFA) [1]) | pest or weed control at 1000 g/ha [2] | pest or weed control at 1000 g/ha (Solanum nigrum (SOLNI) [3]) | pest or weed control at 1000 g/ha [4] | pest or weed control at 1000 g/ha (Avena fatua (AVEFA) [5]) | pest or weed control at 1000 g/ha [6] | pest or weed control at 1000 g/ha (Setaria faberi (SETFA) [7]) | pest or weed control at 1000 g/ha [8] | pest or weed control at 1000 g/ha (Solanum nigrum (SOLNI) [9]) | pest or weed control at 1000 g/ha [10] | pest or weed control at 1000 g/ha (Avena fatua (AVEFA) [11]) | pest or weed control at 1000 g/ha [12]
Cc1ccc(-c2ccc3c(c2)OCO3)cc1C1=C(O)CC(CC2CCOCC2)CC1=O (stereo not drawn) [Compound A-53] | 0% | 0% | 0% | 0% | 0% | 0% | 60% | 50% | 0% | 0% | 50% | 70%
Cc1ccc(-c2ccc3c(c2)OCCO3)cc1C1=C(O)CC(CC2CCOCC2)CC1=O (stereo not drawn) [Compound A-54] | 0% | 60% | 0% | 0% | 10% | 0% | 0% | 0% | 0% | 0% | 0% | 70%
Cc1ccc(-c2ccc(Cl)cc2)cc1C1=C(O)CC(CC2OCCCO2)CC1=O (stereo not drawn) [Compound A-55, 2-(4′-Chloro-4-methylbiphenyl-3-yl)-5-[1,3]dioxan-2-ylmethylcyclohexane-1,3-dione] | 60% | 0% | 0% | 0% | 20% | 60% | 100% | 90% | 0% | 0% | 90% | 100%
Cc1ccc(-c2ccc(Cl)cc2)cc1C1=C(O)CC(CC2OCC(C)(C)CO2)CC1=O (stereo not drawn) [Compound A-56] | 70% | 20% | 0% | 0% | 0% | 0% | 90% | 80% | 0% | 0% | 0% | 100%
CCC1(CC)COC(CC2CC(=O)C(c3cc(-c4ccc(Cl)cc4)ccc3C)=C(O)C2)OC1 (stereo not drawn) [Compound A-57] | 90% | 40% | 0% | 0% | 0% | 0% | 90% | 70% | 0% | 0% | 20% | 90%
Cc1ccc(-c2ccc(Cl)cc2)cc1C1=C(O)CC(CC2OCC3(CCOCC3)O2)CC1=O (stereo not drawn) [Compound A-58] | 30% | 20% | 0% | 0% | 0% | 60% | 90% | 60% | 0% | 0% | 40% | 90%
